Experimental data as given in patent publication US10098870B2 (JENKEM TECHNOLOGY CO., LTD. (BEIJING), priority 2013, dated 2018).
“Also recorded” adds a separate entry of the source. Where two headings read alike, the source gives them in different places.

What was measured:
[1] = tested on: human hepatoma cell plc/prf/5; test: Anti-tumor effect on subcutaneous transplantation tumor model of plc/prf/5 in NOD/SCID mice (Example 5); assay type: in vivo, NOD/SCID mouse; settings: for Tumor volume: 10 mg/kg (counted with rapamycin) i.v. Q2W×2W, mean ± SE
Procedure: The tumor cells were passaged with digestion by trypsin-EDTA twice a week. The cells in the exponential growth phase were collected, counted, and used for inoculation.
1×10^7 of plc/prf/5 tumor cells were suspended in 0.1 ml of mixed solution (PBS:Matrigel=4:1), inoculated to each NOD/SCID mouse at the right shoulder.
Wherein Q2W×2W represents intravenous injection […] for 2 weeks, the same below. (2) Experimental Results

[2] = Body weight, survival and tolerance of mice bearing A549 (Example 10);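 on all read-outs here: nude mice, each given 1.0×10^7 A549 tumor cells in the right shoulder region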; settings: 15 mg/kg i.v. BIW×4W; for Body weight of animal: mean ± SE
Procedure: (§1) 1.0×10^7 of A549 tumor cells were suspended in 0.1 ml of PBS, inoculated to each nude mouse at the right shoulder, and there were totally 36 mice inoculated.

[3] = Body weight, survival and tolerance of mice bearing H460 (Example 8); settings: 15 mg/kg i.v. BIW×3W; for Body weight of animal: mean ± SE
Procedure: (§2) 5.0×10^6 of H460 tumor cells were suspended in 0.1 ml of PBS, inoculated to each nude mouse at the right shoulder, and there were totally 34 mice inoculated. 8 days later the mean tumor volume was desired to reach about 143 mm^3, the mice with a smaller or larger tumor were removed and the remaining 24 mice were divided into groups randomly according to tumor volume and administrated.

[4] = Body weight, survival and tolerance of mice bearing Calu-6 (Example 9);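 on all read-outs here: nude mice bearing Calu-6 tumours, established by implanting 5.0×10^6 cells at the right shoulder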; settings: 15 mg/kg i.v. BIW×4W; for Body weight of animal: mean ± SE
Procedure: (§3) 5.0×10^6 of Calu-6 tumor cells were suspended in 0.1 ml of PBS, inoculated to each nude mouse at the right shoulder, and there were totally 34 mice inoculated.

[5] = tested on: A549 human non-small cell lung cancer cells; test: Anti-tumor effect on xenograft tumor model of A549 in nude mice (Example 10);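 on all read-outs here: nude mice bearing A549 xenografts established by inoculating 1.0×10^7 cells in PBS at the right shoulder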; settings: 15 mg/kg i.v. BIW×4W; for Tumor volume: mean ± SE
Procedure: A549 cells were cultured with a monolayer in vitro in RPMI1640 medium supplied with heat-inactivated fetal bovine serum with a volume ratio of 10%, and an incubator at 37° C. with the air containing CO2 with a proportion of 5%. The tumor cells were passaged with digestion by trypsin-EDTA twice a week. The cells in the exponential growth phase were collected, counted, and used for inoculation.
as §1

[6] = tested on: H460 human non-small cell lung cancer cells; settings: 15 mg/kg i.v. BIW×3W; for Tumor volume: mean ± SE
Procedure: as §2

[7] = tested on: Calu-6 human lung cancer cell; test: Anti-tumor effect on xenograft tumor model of Calu-6 in nude mice (Example 9);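 on all read-outs here: each nude mouse received 5.0×10^6 Calu-6 cells implanted at the right shoulder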; settings: 15 mg/kg i.v. BIW×4W; for Tumor volume: mean ± SE
Procedure: Calu-6 cells were cultured with a monolayer in vitro in MEM medium supplied with heat-inactivated fetal bovine serum with a volume ratio of 10%, and an incubator at 37° C. with the air containing CO2 with a proportion of 5%. The tumor cells were passaged with digestion by trypsin-EDTA twice a week. The cells in the exponential growth phase were collected, counted, and used for inoculation.
as §3

[8] = Body weight, survival and tolerance of mice bearing plc/prf/5 (Example 6); assay type: in vivo, nude mouse; settings: for Body weight of animal: 25 mg/kg i.v. QD×5, mean ± SE
Excerpt: Wherein QW×4W represents intravenous injection once a week for 4 weeks, BIW×4W represents intravenous injection […] for 4 weeks, the same below. (2) Experimental Results

[9] = tested on: human hepatoma cell Hep3B; test: Anti-tumor effect on xenograft tumor model of Hep3B in immune deficiency mice (Example 7); settings: for Tumor volume: mean ± SE
[10] = tested on: human hepatoma cell plc/prf/5; test: Anti-tumor effect on xenograft tumor model of plc/prf/5 in nude mice (Example 6); settings: for Tumor volume: 25 mg/kg i.v. QD×5, mean ± SE
Excerpt: 10 days later the mean tumor volume was desired to reach about 161 mm^3, the mice with a smaller or larger tumor were removed and the remaining 24 mice were divided into groups randomly according to tumor volume and administrated.
Wherein QW×4W represents intravenous injection once a week for 4 weeks, BIW×4W represents intravenous injection once every two weeks for 4 weeks, the same below.

[11] = Body weight, survival and tolerance of mice bearing Hep3B (Example 7); assay type: in vivo, mouse; settings: 15 mg/kg i.v. (QD×5)×2W, mean ± SE
[12] = 5-FU 25 mg/kg, LPR-2 30 and 45 mg/kg
[13] = 15 mg/kg i.v. (QD×5)×2W, vs physiological saline
[14] = 44th day, 15 mg/kg i.v. (QD×5)×2W, Mean ± SEM

## Y-type polyethylene glycol (40K)-glutamic acid dipeptide-rapamycin conjugate [LPR-3]
[1]; 10 mg/kg counted with rapamycin, i.v. Q2W×2W
  anti-tumor effect (in words): stronger antitumor activity than that of polyethylene glycol-rapamycin (LPR-1); also recorded: a certain anti-tumor effect
[1]; 10 mg/kg i.v. Q2W×2W
  Days for delaying tumor growth (to 1000 mm^3): >7 days
[1]; 10 mg/kg i.v. Q2W×2W, day 38, vs vehicle control
  Tumor control rate T/C (%): 47%
[1]; day 24 after inoculation
  Tumor volume: 358 ± 62 mm^3
[1]; day 27 after inoculation
  Tumor volume: 455 ± 85 mm^3
[1]; day 31 after inoculation
  Tumor volume: 569 ± 100 mm^3
[1]; day 34 after inoculation
  Tumor volume: 754 ± 151 mm^3
[1]; day 38 after inoculation
  Tumor volume: 848 ± 178 mm^3

## CC(=O)O[C@H]1C(=O)[C@@]2(C)[C@H]([C@H](OC(=O)c3ccccc3)[C@]3(O)C[C@H](OC(=O)[C@H](O)[C@@H](NC(=O)c4ccccc4)c4ccccc4)C(C)=C1C3(C)C)[C@]1(OC(C)=O)CO[C@@H]1C[C@@H]2O [Paclitaxel, reference compound]
[2]; 6 animals per group
  N, number of surviving animals after completion of the treatment: 6
[2]; day 24 after inoculation
  Body weight of animal: 20.6 ± 0.4 g
[2]; day 28 after inoculation
  Body weight of animal: 20.8 ± 0.4 g
[2]; day 31 after inoculation
  Body weight of animal: 20.6 ± 0.4 g
[2]; day 35 after inoculation
  Body weight of animal: 20.8 ± 0.5 g
[2]; day 38 after inoculation
  Body weight of animal: 20.8 ± 0.6 g
[2]; day 42 after inoculation
  Body weight of animal: 21.6 ± 0.6 g
[2]; day 45 after inoculation
  Body weight of animal: 21.3 ± 0.6 g
[2]; day 49 after inoculation
  Body weight of animal: 21.3 ± 0.7 g
[2]; day 52 after inoculation
  Body weight of animal: 21.8 ± 0.6 g
[3]; 6 animals per group
  N, number of surviving animals after completion of the treatment: 6
[3]; day 8 after inoculation
  Body weight of animal: 20.1 ± 0.4 g
[3]; day 12 after inoculation
  Body weight of animal: 19.9 ± 0.3 g
[3]; day 15 after inoculation
  Body weight of animal: 19.8 ± 0.2 g
[3]; day 19 after inoculation
  Body weight of animal: 19.5 ± 0.2 g
[3]; day 22 after inoculation
  Body weight of animal: 18.6 ± 0.3 g
[4]; 6 animals per group
  N, number of surviving animals after completion of the treatment: 6
[4]; day 17 after inoculation
  Body weight of animal: 20.5 ± 0.2 g
[4]; day 21 after inoculation
  Body weight of animal: 20.5 ± 0.3 g
[4]; day 24 after inoculation
  Body weight of animal: 19.6 ± 0.4 g
[4]; day 28 after inoculation
  Body weight of animal: 19.8 ± 0.4 g
[4]; day 31 after inoculation
  Body weight of animal: 19.7 ± 0.6 g
[4]; day 35 after inoculation
  Body weight of animal: 20.1 ± 0.5 g
[4]; day 38 after inoculation
  Body weight of animal: 20.1 ± 0.4 g
[5]
  TGD (to 1,000 mm^3): >7
[5]; vs physiological saline
  T/C (%) RTV: 24%
  T/C (%) TW: 19%
[5]; 52nd day, Mean ± SEM
  RTV: 2.35 ± 0.16
  Tumor weight: 253 ± 52 mg
[5]; day 24 after inoculation
  Tumor volume: 138 ± 13 mm^3
[5]; day 28 after inoculation
  Tumor volume: 196 ± 24 mm^3
[5]; day 31 after inoculation
  Tumor volume: 230 ± 35 mm^3
[5]; day 35 after inoculation
  Tumor volume: 260 ± 49 mm^3
[5]; day 38 after inoculation
  Tumor volume: 265 ± 48 mm^3
[5]; day 42 after inoculation
  Tumor volume: 294 ± 41 mm^3
[5]; day 45 after inoculation
  Tumor volume: 327 ± 54 mm^3
[5]; day 49 after inoculation
  Tumor volume: 342 ± 54 mm^3
[5]; day 52 after inoculation
  Tumor volume: 331 ± 49 mm^3
[6]
  TGD (to 1,000 mm^3): 7
[6]; vs physiological saline
  T/C (%) RTV: 59%
  T/C (%) TW: 66%
[6]; 29th day, Mean ± SEM
  RTV: 9.03 ± 0.93
  Tumor weight: 1053 ± 146 mg
[6]; day 8 after inoculation
  Tumor volume: 143 ± 15 mm^3
[6]; day 12 after inoculation
  Tumor volume: 295 ± 42 mm^3
[6]; day 15 after inoculation
  Tumor volume: 400 ± 70 mm^3
[6]; day 19 after inoculation
  Tumor volume: 519 ± 97 mm^3
[6]; day 22 after inoculation
  Tumor volume: 680 ± 110 mm^3
[6]; day 26 after inoculation
  Tumor volume: 944 ± 117 mm^3
[6]; day 29 after inoculation
  Tumor volume: 1,281 ± 184 mm^3
[7]
  TGD (to 1,000 mm^3): >8
[7]; vs physiological saline
  T/C (%) RTV: 16%
  T/C (%) TW: 13%
[7]; 42nd day, Mean ± SEM
  RTV: 2.31 ± 0.53
  Tumor weight: 202 ± 52 mg
[7]; day 14 after inoculation
  Tumor volume: 138 ± 14 mm^3
[7]; day 17 after inoculation
  Tumor volume: 159 ± 18 mm^3
[7]; day 21 after inoculation
  Tumor volume: 222 ± 23 mm^3
[7]; day 24 after inoculation
  Tumor volume: 219 ± 26 mm^3
[7]; day 28 after inoculation
  Tumor volume: 229 ± 37 mm^3
[7]; day 31 after inoculation
  Tumor volume: 264 ± 53 mm^3
[7]; day 35 after inoculation
  Tumor volume: 281 ± 59 mm^3
[7]; day 38 after inoculation
  Tumor volume: 282 ± 60 mm^3
[7]; day 42 after inoculation
  Tumor volume: 314 ± 72 mm^3

## O=c1[nH]cc(F)c(=O)[nH]1 [5-FU, reference compound]
[8]; [12]
  toxicity / tolerance (in words): so toxic with this dosage that all the animals died; also recorded: a significant toxicity and the whole group of animals died
[8]; day 10 after inoculation
  Body weight of animal: 19.6 ± 0.3 g
[8]; day 17 after inoculation
  Body weight of animal: 14.7 ± 0.5 g
[9]; 15 mg/kg i.v. (QD×5)×2W
  TGD (to 1,000 mm^3): 6
[9]; [13]
  T/C (%) RTV: 106%
  T/C (%) TW: 109%
[9]; 5-FU 15 mg/kg, LPR-2 30 and 45 mg/kg
  anti-tumor effect (in words): not significant
[9]; [14]
  RTV: 4.53 ± 0.32
  Tumor weight: 1695 ± 289 mg
[9]; day 16 after inoculation, 15 mg/kg i.v. (QD×5)×2W
  Tumor volume: 453 ± 66 mm^3
[9]; day 20 after inoculation, 15 mg/kg i.v. (QD×5)×2W
  Tumor volume: 567 ± 84 mm^3
[9]; day 23 after inoculation, 15 mg/kg i.v. (QD×5)×2W
  Tumor volume: 667 ± 105 mm^3
[9]; day 27 after inoculation, 15 mg/kg i.v. (QD×5)×2W
  Tumor volume: 820 ± 149 mm^3
[9]; day 30 after inoculation, 15 mg/kg i.v. (QD×5)×2W
  Tumor volume: 850 ± 150 mm^3
[9]; day 34 after inoculation, 15 mg/kg i.v. (QD×5)×2W
  Tumor volume: 1,123 ± 226 mm^3
[9]; day 37 after inoculation, 15 mg/kg i.v. (QD×5)×2W
  Tumor volume: 1,500 ± 295 mm^3
[9]; day 41 after inoculation, 15 mg/kg i.v. (QD×5)×2W
  Tumor volume: 1,793 ± 342 mm^3
[9]; day 44 after inoculation, 15 mg/kg i.v. (QD×5)×2W
  Tumor volume: 2,114 ± 395 mm^3
[10]; [12]
  anti-tumor effect (in words): obvious anti-tumor effect
[10]; day 10 after inoculation
  Tumor volume: 170 ± 16 mm^3
[10]; day 13 after inoculation
  Tumor volume: 118 ± 7 mm^3
[10]; day 17 after inoculation
  Tumor volume: 69 ± 4 mm^3
[11]; day 20 after inoculation
  Body weight of animal: 19.4 ± 0.4 g
[11]; day 23 after inoculation
  Body weight of animal: 19.7 ± 0.3 g
[11]; day 27 after inoculation
  Body weight of animal: 18.6 ± 0.3 g
[11]; day 30 after inoculation
  Body weight of animal: 18.1 ± 0.3 g
[11]; day 34 after inoculation
  Body weight of animal: 18.5 ± 0.4 g
[11]; day 37 after inoculation
  Body weight of animal: 18.3 ± 0.3 g
[11]; day 41 after inoculation
  Body weight of animal: 18.1 ± 0.3 g
